Source: patent publication US9073863B2, “Cyanoquinoline compounds having activity in correcting mutant-CFTR processing and increasing ion transport and uses thereof” (The Regents of the University of California, priority 2011, dated 2015)
Values belong to the compound of their own block, whether it stands above or below them.

Key:
ΔF508-CFTR [1] = target: T1, ΔF508-CFTR (Homo sapiens, UniProt P13569, DEL508-508); assay: Potentiator assay, YFP fluorescence plate reader iodide influx in low-temperature rescued ΔF508-CFTR expressing FRT cells; format: cell-based
T1 construct: expressed in transfected cells; host or cells: Fischer rat thyroid (FRT) epithelial cells, stably transfected
T1 sequence (P13569 with tags, fused parts or gaps DEL508-508): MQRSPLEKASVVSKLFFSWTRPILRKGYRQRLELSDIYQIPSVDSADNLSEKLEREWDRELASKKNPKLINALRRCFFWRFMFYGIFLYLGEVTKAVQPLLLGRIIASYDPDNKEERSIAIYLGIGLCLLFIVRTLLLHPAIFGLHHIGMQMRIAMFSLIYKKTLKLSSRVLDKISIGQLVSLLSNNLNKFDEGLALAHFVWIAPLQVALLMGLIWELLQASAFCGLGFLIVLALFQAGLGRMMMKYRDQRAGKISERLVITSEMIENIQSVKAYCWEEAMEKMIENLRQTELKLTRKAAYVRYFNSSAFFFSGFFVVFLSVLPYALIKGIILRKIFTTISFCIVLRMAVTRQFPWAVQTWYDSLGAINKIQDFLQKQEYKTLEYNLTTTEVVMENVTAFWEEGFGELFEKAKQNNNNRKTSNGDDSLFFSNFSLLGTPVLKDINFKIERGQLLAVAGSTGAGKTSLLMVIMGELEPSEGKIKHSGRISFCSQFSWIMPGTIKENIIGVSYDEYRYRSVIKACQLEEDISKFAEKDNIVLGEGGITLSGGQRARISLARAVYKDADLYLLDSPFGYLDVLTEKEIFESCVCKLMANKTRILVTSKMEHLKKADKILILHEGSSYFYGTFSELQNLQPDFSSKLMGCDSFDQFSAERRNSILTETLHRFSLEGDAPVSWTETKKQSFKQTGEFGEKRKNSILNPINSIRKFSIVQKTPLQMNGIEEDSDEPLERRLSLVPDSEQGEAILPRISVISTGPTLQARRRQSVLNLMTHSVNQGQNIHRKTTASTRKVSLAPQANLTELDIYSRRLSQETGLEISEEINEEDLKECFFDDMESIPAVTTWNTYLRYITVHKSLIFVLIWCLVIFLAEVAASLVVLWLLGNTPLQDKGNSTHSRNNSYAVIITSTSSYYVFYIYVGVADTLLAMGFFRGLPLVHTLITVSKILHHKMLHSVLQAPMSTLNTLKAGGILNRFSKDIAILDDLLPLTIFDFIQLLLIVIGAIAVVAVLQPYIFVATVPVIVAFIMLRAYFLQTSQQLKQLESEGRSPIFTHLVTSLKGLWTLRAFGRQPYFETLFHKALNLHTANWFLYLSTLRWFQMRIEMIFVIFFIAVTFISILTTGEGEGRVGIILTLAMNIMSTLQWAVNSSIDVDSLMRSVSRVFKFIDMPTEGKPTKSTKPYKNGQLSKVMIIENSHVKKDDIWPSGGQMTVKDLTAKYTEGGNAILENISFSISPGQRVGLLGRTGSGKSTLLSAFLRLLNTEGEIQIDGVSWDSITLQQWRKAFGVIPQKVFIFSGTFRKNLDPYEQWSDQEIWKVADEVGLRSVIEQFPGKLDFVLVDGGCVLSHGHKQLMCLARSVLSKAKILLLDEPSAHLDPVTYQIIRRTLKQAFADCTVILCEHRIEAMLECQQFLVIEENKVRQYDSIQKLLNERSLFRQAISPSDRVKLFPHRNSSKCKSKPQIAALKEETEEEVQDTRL
Experimental: (§1) Screening procedures. Screening of compounds for activity was carried out using a Beckman Coulter platform equipped with FLUOstar fluorescence plate readers (Optima; BMG Labtech) with dual syringe pumps and 500±10 nm excitation and 535±15 nm emission filters (Chroma Corp.). For the corrector assay, FRT cells were grown at 37° C./5% CO2 for 18-24 h and then incubated for 18-24 h with 100 μL of medium containing test compounds (25 μM final concentration). At the time of the assay, cells were washed with PBS and then incubated for 10 min with PBS containing forskolin (20 μM) and genistein (50 μM). For the potentiator assay, FRT cells were grown at 37° C./5% CO2 for 18-24 h and then for 18-24 h at 27° C. At the time of the assay, cells were washed with PBS and then incubated for 10 min with PBS (50 μL) containing forskolin (20 μM) and test compound (0-25 μM final concentration). For both the corrector and potentiator assays, each well was assayed individually for I^− influx by recording fluorescence continuously (200 ms per point) for 2 s (baseline) and then for 12 s after rapid addition of 165 μL PBS in which 137 mM Cl^− was replaced by I^−. Initial I^− influx rate was computed by fitting the final 11.5 seconds of the data to an exponential for extrapolation of initial slope, which was normalized for background-subtracted initial fluorescence. All compound plates contained negative controls and positive controls (10 μM Corr-4a for corrector assay; 50 μM genistein for potentiator assay).
(§2) Screening of about 110,000 small molecules was done to identify new ΔF508-CFTR corrector scaffolds having high correction efficiency and/or having independent potentiator activity. […] FRT cells co-expressing human ΔF508-CFTR and a halide-sensing YFP were incubated with test compounds at 37° C. (corrector assay) or 27° C. (potentiator assay). ΔF508-CFTR function was assayed in a plate reader from YFP fluorescence quenching in response to iodide addition in the presence of forskolin (20 μM) plus genistein (50 μM) for corrector assay, or forskolin (20 μM) alone for potentiator assay. As shown in FIG. 1A (left), primary screening for corrector activity was done using a cell-based fluorescence assay of iodide influx in which FRT cells expressing ΔF508-CFTR and an iodide-sensitive YFP were incubated with test compounds at 10 μM for 18-24 h prior to assay. Iodide influx was measured by addition of extracellular iodide in the presence of a potentiator (50 μM genistein) and cAMP agonist (20 μM forskolin). Compound efficacy and potency (from concentration-dependence studies) in the corrector assay were compared to reference bithiazole Corr-4a (10 μM) and to low-temperature rescued cells. Active compounds were counter-screened for potentiator activity (FIG. 1A, right) in which iodide influx was measured in the ΔF508-CFTR expressing FRT cells after low-temperature rescue and in the presence of 20 μM forskolin.
(§3) Screening procedures. Plate reader activity assay was carried out using a Beckman Coulter platform containing a robotic arm, CO2 incubator containing microplate carousel, plate-washer, liquid handling work station, bar code reader, de-lidding station, plate sealer, and FLUOstar fluorescence plate readers (Optima; BMG LABTECH Gmbh), equipped with dual syringe pumps and 500±10 nm excitation and 535±15 nm emission filters (Chroma Corp.). For the corrector assay, ΔF508-CFTR-expressing FRT cells were grown at 37° C. (90% humidity; 5% CO2) for 18-24 h and then incubated for 18-24 h with 100 μL of medium containing test compounds (0-25 μM final concentration). At the time of the assay, cells were washed with PBS and then incubated for 10 min with PBS containing forskolin (20 μM) and genistein (50 μM). For the potentiator assay, FRT cells were grown at 37° C. (90% humidity; 5% CO2) for 18-24 h and then for 18-24 h at 27° C. […]

ΔF508-CFTR [2] = target: T1, ΔF508-CFTR; assay: Corrector assay, YFP fluorescence plate reader iodide influx in ΔF508-CFTR expressing FRT cells; format: cell-based; details: for Corrector EC50 / Corrector Vmax / EC50: 18-24 h with compound at 37° C., forskolin 20 μM + genistein 50 μM; for corrector activity, comparison in words: propylene tether, methoxy position on arylamide; for corrector and potentiator activities, in words: concentration-dependence in corrector and potentiator I− influx assays (FIG. 2, FIG. 7)
Experimental: as §1, §2, §3

[3] = Table IX, additional experiments, 18-24 h at 27° C., forskolin 20 μM + test compound
[4] = Table IX, additional experiments
[5] = Table VIII, FRT cells 18-24 h at 27° C., forskolin 20 μM + test compound, I− influx
[6] = Table VIII, FRT cells, I− influx

Compound: COc1ccc(C(=O)N2CCN(c3nc4cc(C)cc(C)c4cc3C#N)CC2)cc1 [drawing 172]
Potentiator Vmax (ΔF508-CFTR [1]; [3]): 281 µM/s | Corrector EC50 (ΔF508-CFTR [2]; [4]): inactive | Corrector Vmax (ΔF508-CFTR [2]; [4]): inactive

Compound: COc1cccc(C(=O)N2CCN(c3nc4cc(C)cc(C)c4cc3C#N)CC2)c1 [drawing 171]
Potentiator Vmax (ΔF508-CFTR [1]; [3]): 200 µM/s | Corrector EC50 (ΔF508-CFTR [2]; [4]): inactive | Corrector Vmax (ΔF508-CFTR [2]; [4]): inactive

Compound: COc1ccc(C(=O)NCCNc2nc3cc(C)cc(C)c3cc2C#N)cc1 [drawing 166]
Potentiator Vmax (ΔF508-CFTR [1]; [3]): 181 µM/s | Corrector Vmax (ΔF508-CFTR [2]; [4]): 172 µM/s

Compound: Cc1ccc2cc(C#N)c(N3CCCN(C(=O)c4cccs4)CC3)nc2c1
EC50 (ΔF508-CFTR [1]; [5]): 13 µM | Potentiator Vmax (ΔF508-CFTR [1]; [5]): 261 µM/s | Corrector EC50 (ΔF508-CFTR [2]; [6]): inactive | Corrector Vmax (ΔF508-CFTR [2]; [6]): inactive

Compound: COc1ccccc1C(=O)N1CCN(c2nc3cc(C)cc(C)c3cc2C#N)CC1 [drawing 152]
Potentiator Vmax (ΔF508-CFTR [1]; [5]): 129 µM/s | Corrector Vmax (ΔF508-CFTR [2]; [6]): inactive

Compound: COc1ccccc1C(=O)N1CCN(c2nc3cc(C)cc(C)c3cc2C#N)CC1 [drawing 170]
EC50 (ΔF508-CFTR [1]; [3]): 1 ± 0.3 µM | Potentiator Vmax (ΔF508-CFTR [1]; [3]): 129 µM/s | Corrector EC50 (ΔF508-CFTR [2]; [4]): inactive | Corrector Vmax (ΔF508-CFTR [2]; [4]): inactive

Compound: COc1cccc(C(=O)NCCCNc2nc3cc(C)cc(C)c3cc2C#N)c1 [Compound AW8]
corrector activity, comparison in words (ΔF508-CFTR [2]): greater corrector activity than Compound AW7

Compound: Cc1cc(C)c2cc(C#N)c(NCCNC(=O)c3cccnc3)nc2c1 [drawing 150]
EC50 (ΔF508-CFTR [1]; [5]): 11 µM | Potentiator Vmax (ΔF508-CFTR [1]; [5]): 152 µM/s | Corrector Vmax (ΔF508-CFTR [2]; [6]): 223 µM/s | EC50 (ΔF508-CFTR [2]; [6]): 15.2 µM

Compound: Cc1cc(C)c2cc(C#N)c(NCCNC(=O)c3cccnc3)nc2c1 [Compound CP5]
corrector and potentiator activities, in words (ΔF508-CFTR [2]): both corrector and potentiator activities

Compound: COc1ccc(C(=O)NCCNc2nc3ccc(C)cc3cc2C#N)cc1OC [Compound 02]
corrector and potentiator activities, in words (ΔF508-CFTR [2]): corrector and potentiator activities comparable to those of Compound 22

Compound: COc1ccc(C(=O)NCCNc2nc3cc(C)cc(C)c3cc2C#N)nc1 [Compound 110]
corrector and potentiator activities, in words (ΔF508-CFTR [2]): both corrector and potentiator activities

Compound: COc1ccc(C(=O)NCCCNc2nc3cc(C)cc(C)c3cc2C#N)cc1 [Compound AW9]
corrector activity, comparison in words (ΔF508-CFTR [2]): greater corrector activity than Compound AW7

Compound: COc1ccc(S(=O)(=O)N2CCN(c3nc4ccc(C)cc4cc3C#N)CC2)cc1 [Compound 05]
corrector and potentiator activities, in words (ΔF508-CFTR [2]): dual activities

Compound: Cc1cc(C)c2cc(C#N)c(N3CCN(C(=O)c4cccnc4)CC3)nc2c1 [drawing 156]
Potentiator EC50 (ΔF508-CFTR [1]; [5]): inactive | Potentiator Vmax (ΔF508-CFTR [1]; [5]): inactive

Compound: COc1ccc(C(=O)NCCNc2nc3c(C)cccc3cc2C#N)cc1OC [Compound 01]
corrector and potentiator activities, in words (ΔF508-CFTR [2]): corrector and potentiator activities comparable to those of Compound 22

Compound: COc1ccc(C(=O)NCCNc2nc3cc(C)cc(C)c3cc2C#N)cc1OC [Compound 103]
corrector and potentiator activities, in words (ΔF508-CFTR [2]): both corrector and potentiator activities

The remaining lines, values ahead:

Potentiator Vmax (ΔF508-CFTR [1]; [5]): 102 µM/s | Corrector Vmax (ΔF508-CFTR [2]; [6]): inactive
Compound: Cc1cc(C)c2cc(C#N)c(N3CCN(C(=O)c4ccccn4)CC3)nc2c1 [drawing 155]

EC50 (ΔF508-CFTR [1]; [3]): 5.9 ± 0.5 µM | Potentiator Vmax (ΔF508-CFTR [1]; [3]): 216 µM/s | Corrector Vmax (ΔF508-CFTR [2]; [4]): 300 µM/s | EC50 (ΔF508-CFTR [2]; [4]): 2.2 ± 0.3 µM
Compound: COc1cccc(C(=O)NCCNc2nc3cc(C)cc(C)c3cc2C#N)c1 [drawing 164]

Corrector EC50 (ΔF508-CFTR [2]; [6]): inactive | Corrector Vmax (ΔF508-CFTR [2]; [6]): inactive
Compound: Cc1cc(C)c2cc(C#N)c(NCCCNC(=O)c3ccncc3)nc2c1 [drawing 163]

corrector and potentiator activities, in words (ΔF508-CFTR [2]): dual activities
Compound: Cc1cc(C)c2cc(C#N)c(NCCNC(=O)c3cccs3)nc2c1 [Compound 03]

potentiator activity, in words (ΔF508-CFTR [1]; piperazine ring in place of diamino ethylene tether): significant potentiator activity
Compound: COc1cccc(C(=O)N2CCN(c3nc4cc(C)cc(C)c4cc3C#N)CC2)c1 [Compound AW2]

EC50 (ΔF508-CFTR [1]; [5]): 6.1 µM | Potentiator Vmax (ΔF508-CFTR [1]; [5]): 233 µM/s
Compound: Cc1cc(C)c2cc(C#N)c(NCCCNC(=O)c3ccccn3)nc2c1 [drawing 161]

corrector and potentiator activities, in words (ΔF508-CFTR [2]): potentiator-only activity
Compound: CCOc1ccccc1NC(=S)NCCNc1nc2c(C)cccc2cc1C#N [Compound 14]
